Values quoted from earlier work in patent US20190321395A1, “TREATMENT OF PSORIASIS, SEBORRHEIC DERMATITIS, AND ECZEMA OF THE HEAD AND NECK” (Oread Therapeutics, priority 2018, published 2019).

| SMILES | Water Solubility [µg/mL] |
| --- | --- |
| [O-][n+]1ccccc1[S-].[O-][n+]1ccccc1[S-].[Zn+2] [Pyrithione Zinc] | 86.00 |
| CC(=O)N1CCN(c2ccc(OCC3COC(Cn4ccnc4)(c4ccc(Cl)cc4Cl)O3)cc2)CC1 (centres unmarked) [Ketoconazole] | 0.9 |
